Article PMC12909347, “Disconnect between in vitro and in vivo efficacy of the MPS1 inhibitor NTRC 0066-0 against glioblastoma” (Cellular Oncology, 2026)

Columns and labels:
MRP4 = biological target: T1, MRP4 (Mus musculus, UniProt E9Q236); assay: Brain penetration in Abcb1a/b;Abcg2;Abcc4-/- mice; type: in vivo; details: 1 h after 5 mg/kg i.v.
T1 construct: Abcb1a/b; from tissue; host or cells: blood-brain barrier / brain of FVB mice (Abcb1a/b;Abcg2;Abcc4-/- versus other strains)
T1 sequence (E9Q236 1-1325): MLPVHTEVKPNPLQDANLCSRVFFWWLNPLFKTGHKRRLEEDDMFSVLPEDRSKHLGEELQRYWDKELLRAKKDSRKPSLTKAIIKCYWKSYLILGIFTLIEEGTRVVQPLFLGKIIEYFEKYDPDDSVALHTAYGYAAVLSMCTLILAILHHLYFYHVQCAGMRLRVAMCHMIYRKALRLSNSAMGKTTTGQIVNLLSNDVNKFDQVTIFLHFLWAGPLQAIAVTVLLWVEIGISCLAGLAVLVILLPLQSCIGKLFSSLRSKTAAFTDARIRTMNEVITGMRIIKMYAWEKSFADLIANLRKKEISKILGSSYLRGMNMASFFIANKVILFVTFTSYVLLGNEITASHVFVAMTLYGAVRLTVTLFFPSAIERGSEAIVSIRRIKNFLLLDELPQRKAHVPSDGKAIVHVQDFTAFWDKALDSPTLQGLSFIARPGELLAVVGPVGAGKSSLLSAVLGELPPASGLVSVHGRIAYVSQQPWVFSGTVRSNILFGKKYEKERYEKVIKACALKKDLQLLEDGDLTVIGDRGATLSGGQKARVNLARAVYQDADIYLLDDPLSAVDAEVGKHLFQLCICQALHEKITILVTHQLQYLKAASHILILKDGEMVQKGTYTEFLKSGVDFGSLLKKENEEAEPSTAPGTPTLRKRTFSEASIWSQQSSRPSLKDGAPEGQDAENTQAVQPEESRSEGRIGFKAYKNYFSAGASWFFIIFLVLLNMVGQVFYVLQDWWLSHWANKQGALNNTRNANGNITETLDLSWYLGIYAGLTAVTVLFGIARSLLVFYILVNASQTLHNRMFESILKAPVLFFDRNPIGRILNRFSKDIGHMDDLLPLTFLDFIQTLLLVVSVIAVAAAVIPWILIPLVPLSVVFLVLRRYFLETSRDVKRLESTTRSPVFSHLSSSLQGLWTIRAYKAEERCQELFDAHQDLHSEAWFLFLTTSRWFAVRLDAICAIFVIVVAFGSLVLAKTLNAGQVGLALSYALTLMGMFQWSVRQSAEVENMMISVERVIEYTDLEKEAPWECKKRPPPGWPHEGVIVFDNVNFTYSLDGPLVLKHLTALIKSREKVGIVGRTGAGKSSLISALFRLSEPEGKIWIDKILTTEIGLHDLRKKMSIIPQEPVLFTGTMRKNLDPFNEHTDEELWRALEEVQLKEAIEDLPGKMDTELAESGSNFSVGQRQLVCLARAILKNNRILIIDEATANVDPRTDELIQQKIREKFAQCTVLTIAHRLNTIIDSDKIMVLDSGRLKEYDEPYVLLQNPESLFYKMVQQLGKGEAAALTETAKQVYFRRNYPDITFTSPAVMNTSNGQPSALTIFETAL
Protocol: (§1) The pharmacokinetics of NTRC 0066-0 were analyzed in wild-type (WT), Abcb1a/b^−/−, Abcg2^−/−, Abcb1a/b^−/−;Abcg2^−/− and Abcb1a/b^−/−;Abcg2^−/−;Abcc4^−/− FVB mice. All knockout mice strains have been developed at the Netherlands Cancer Institute. For i.v. administration, NTRC0066-0 was formulated in DMSO: Cremophor EL: saline (1:1:8 v/v) and injected at a dose of 5 mg/kg. For i.p and oral administration, NTRC0066-0 was administered at 5, 10 or 20 mg/kg as indicated. Serial blood sampling was done by tail vein bleeding at specific time points. At terminal time points, blood was drawn by cardiac puncture followed by tissue collection. Plasma was obtained from whole blood by centrifugation (5 min, 5,000 rpm, 4 °C) and tissues were weighed and homogenized using a FastPrep®-24 (MP-Biomedicals, NY) in 1% (w/v) bovine serum albumin (Sigma-Aldrich) in water.
NTRC 0066-0 was extracted from in vitro and in vivo samples using liquid–liquid extraction with diethyl ether. Another MPS-1 inhibitor, Compound 5 (Cpd-5), was added to the samples as an internal standard. The dried organic phase was reconstituted in 30% methanol in water (v/v). Samples were measured using an LC-MS/MS system comprising an UltiMate 3000 LC Systems (Dionex, Sunnyvale, CA) and an API 4000 mass spectrometer (Sciex, Framingham, MA). […]

P-gp = system: P-gp; parameters: method as in PMID 26153498; details: calcein-AM efflux assay; cited from earlier work
[1] = Pharmacokinetics and brain penetration in Abcb1a/b;Abcg2-/- mice; type: in vivo; details: for Plasma AUC, Abcb1a/b;Abcg2-/- vs WT mice: 10 mg/kg
Protocol: as §1
NTRC 0066-0 was extracted from in vitro and in vivo samples using liquid–liquid extraction with diethyl ether. Another MPS-1 inhibitor, Compound 5 (Cpd-5), was added to the samples as an internal standard. The dried organic phase was reconstituted in 30% methanol in water (v/v). Samples were measured using an LC-MS/MS system comprising an UltiMate 3000 LC Systems (Dionex, Sunnyvale, CA) and an API 4000 mass spectrometer (Sciex, Framingham, MA). Samples were injected on to a Securityguard C18 pre-column (Phenomenex, Utrecht, The Netherlands) connected to a ZORBAX Extend-C18 column (Agilent, Santa Clara, CA). Elution was done at a flow rate of 0.2 mL/min using a 5 min gradient from 20% to 95% B (mobile phase A was 0.1% HCOOH in water (v/v) and mobile phase B was methanol). 95% B was maintained for 3 min followed by re-equilibration at 20% B. Multiple reaction monitoring parameters were 566.2/391.4 (NTRC0066-0) and 581.6/397.0 (internal standard). Analyst® 1.6.2 software (Sciex) was used for system control and data analysis.
PK solver was used to determine pharmacokinetic parameters. The standard error of the oral bioavailability was calculated using the formula below: […]

[2] = Abcb1a/b;Abcg2-/-, i.p. 10 mg/kg
[3] = Abcb1a/b;Abcg2-/-, p.o. 10 mg/kg

## CCc1cccc(CC)c1NC(=O)c1ccn2c1CCc1cnc(Nc3ccc(N4CCN(C)CC4)cc3OC)nc1-2 [NTRC 0066-0]
MRP4
  Brain concentration compared to Abcb1a/b-/- mice: did not display further increased
P-gp
  Inhibition of P-gp activity: does not inhibit the activity of P-gp
[1]; 5 mg/kg p.o. morning + 10 mg/kg p.o. about 8 h later, 7 days (5/10 mg/kg b.i.d.x7d)
  Lowest plasma trough concentration: above 20 nM
[1]; 1, 4, 8 and 24 h after 20 mg/kg p.o.
  Brain concentration vs threshold level of in vitro efficacy: remained well above the threshold level of in vitro efficacy
[1]; 24 h after 10 mg/kg
  Concentration at 24 h, Abcb1a/b;Abcg2-/- vs WT mice: about 5 fold
[1]; 24 h after 20 mg/kg p.o.
  Plasma concentration: 6 nM
[1]; Abcb1a/b;Abcg2-/- mice
  Brain penetration (brain vs plasma): 20 fold
  Brain-plasma ratio: above 20
  Oral bioavailability (relative to i.p.): about 50%
[1]; Abcb1a/b;Abcg2-/- mice, 1 h after 5 mg/kg i.v.
  Brain concentration compared to Abcb1a/b-/- mice: did not display further increased
[1]; Abcb1a/b;Abcg2-/- mice, 24 h after 10 mg/kg p.o. or i.p.
  Brain-to-plasma ratio: approximately 20
[1]; [2]
  Cmax: 1700 ± 160 nM
  MRT: 4.3 ± 0.4 h
  t1/2: 3.4 ± 0.4 h
  tmax: 0.8 ± 0.3 h
[1]; Abcb1a/b;Abcg2-/-, i.p. 10 mg/kg, 0-∞
  Plasma AUCi.p.: 11,000 ± 2200 nM.h
[1]; [3]
  Cmax: 550 ± 52 nM
  MRT: 5.2 ± 0.5 h
  t1/2: 3.6 ± 0.2 h
  tmax: 3.3 ± 1.5 h
[1]; Abcb1a/b;Abcg2-/-, p.o. 10 mg/kg relative to i.p.
  F (bioavailability): 43 ± 11%
[1]; Abcb1a/b;Abcg2-/-, p.o. 10 mg/kg, 0-∞
  Plasma AUCp.o.: 4.7 ± 0.71 µM·h
[1]; after i.p. dosing
  Plasma AUC, Abcb1a/b;Abcg2-/- vs WT mice: about 4 fold
[1]; after oral dosing
  Plasma AUC, Abcb1a/b;Abcg2-/- vs WT mice: ~3 fold
